According to patent publication US20240368122A1, “JAK2 INHIBITORS AND METHODS OF USE THEREOF” (RELAY THERAPEUTICS, INC., priority 2021, published 2024):
Where two headings read alike, the source gives them in different places.

Tests used:
[1] = biological target: T1, JAK2 JH2 WT (V536-D812) [W659A, W777A, F794H solubilizing mutations] (Homo sapiens, UniProt O60674, F794H/W659A/W777A); test: Surface Plasmon Resonance (SPR) binding assay, JAK2 JH2 domain
T1 construct: **JAK2 JH2 WT (V536-D812) [W659A, W777A, F794H solubilizing mutations]; C-thrombin-avi-His6; thrombin cleavage site (C); His6 (C); purchased Biortus
Experimental: Selected compounds of the present disclosure were tested in a Surface Plasmon Resonance (SPR) Assay to measure their binding kinetics and affinity for proteins of interest.
Prepare buffer: 50 mM HEPES pH 7.5, 150 mM NaCl, 0.05% (v/v) Tween, and 10% (v/v) glycerol were combined and pH was adjusted to 7.5, then filtered. 5 mM DTT, was added, and buffer without DMSO was reserved for compound resuspension. 2% (v/v) DMSO was added for assay buffer, and separately 1% DMSO was used to make buffer for resuspending compounds.
Prepare compounds: Using a Bravo liquid handler, 99 μL of 1% (v/v) DMSO assay buffer was added to 1 μL compounds in DMSO.
Run 8K Method: Biotin CAPture (CAP) chip surface was regenerated prior to run by: Inserting CAP chip into Biacore 8K, prime machine with assay buffer with 2% (v/v) DMSO; Setting instrument temperature to 20° C.; Conditioning surface with NaOH/GdnHCl reagents from CAP chip kit (60 seconds, 10 μL/min); and Capturing oligo-Streptavidin (SA) reagent from CAP kit (600 seconds, 1 μL/min), expected capture ˜2500 RU. JAK2 JH1 or JH2 protein was immobilized by preparing a sample of 0.5 uM JH1 or 0.4 uM JH2 protein diluted in assay buffer without DMSO and supplemented with 10 uM of a selected compound of the invention as a stabilizer (370 seconds, 5 uL/min), expected capture ˜1000 RU. Remaining biotin sites on SA were blocked with 1 uM biotin (30 seconds, 20 uL/min), then equilibrated for 1800 seconds at 100 uL/min. Compounds being assayed were run in single cycle kinetics: 4 doses with a top concentration of 5 uM (JH1) or 500 nM (JH2), dilution factor of 3, at 20° C., for a contact time of 60 seconds, and a dissociation time of 300 seconds (JH1) or 1200 seconds (JH2), at a flow rate of 30 uL/min. The surface was completely regenerated after each compound is run, and JH1 or JH2 protein was immobilized fresh prior to each new compound. Data were fitted kinetically with 1:1 binding model using Biacore Insight Evaluation Software.

[2] = test system: TF1 JAK2 V617F STAT5 reporter; test: Cellular TF1 STAT5 assay (luciferase reporter), JAK2 V617F; type: cell-based; conditions: read-out: Cell PD TF1 V617F STAT5 (IC50)
Experimental: (§1) Selected compounds of the present disclosure were tested in a Cellular TF1 STAT3 or STAT5 assay, to measure the degree of JAK2-mediated STAT3 or STAT5 phosphorylation, respectively. TF1 cells (immortalized erythroleukemia line) expressing either wildtype or V617F mutant JAK2 with a luciferase reporter were used.
(§2) Cell culture: Cells were put into antibiotic selection (1 ug/ml puro+500 ug/ml Geneticin) when first thawed then maintained in growth media without antibiotics. Cells were maintained in exponential growth phase, between 0.02-1 E6 cells/ml.
(§3) Compound preparation: Compounds were screened as 10-point dose response curves 1:3 dilutions. DMSO is used as the vehicle control. All wells were normalized to the same final DMSO concentration. Compounds were pre-spotted onto 384 well plates using an Echo acoustic dispenser, 50 nL of 1000× (10 mM top concentration) DMSO stock/well. Each compound is run in triplicate plates.
(§4) Cell plating: Cells were counted using Vi-Cell XR, then cells were spun down and resuspended in growth media to 200,000 cells/ml. Cells were added to plates containing compound. 10,000 cells/well in 50 ul volume using a Biomek liquid handler. Plates were briefly mixed on a shaker for 1 minute at 2500 rpm then placed in a 37° C., 5% CO2 incubator overnight for 18-20 hrs.
(§5) Measuring luciferase activity: ONE-glo reagent was brought to room temperature, and 25 μL of ONE-glo assay reagent was added to each well using Biomek liquid handler. The plates were incubated for 10 minutes at room temperature, then luminescence was measured on an Envision plate reader.

[3] = test system: TF1 JAK2 V617F STAT3 reporter; test: Cellular TF1 STAT3 assay (luciferase reporter), JAK2 V617F; type: cell-based; conditions: read-out: Cell PD-TF1 JAK2 V617F STAT3 (IC50)
Experimental: as §1, §2, §3, §4, §5

[4] = Homo sapiens, TF-1, TF1 cells, JAK2 V617F

T1 sequence (O60674 536-812 W659A/W777A/F794H): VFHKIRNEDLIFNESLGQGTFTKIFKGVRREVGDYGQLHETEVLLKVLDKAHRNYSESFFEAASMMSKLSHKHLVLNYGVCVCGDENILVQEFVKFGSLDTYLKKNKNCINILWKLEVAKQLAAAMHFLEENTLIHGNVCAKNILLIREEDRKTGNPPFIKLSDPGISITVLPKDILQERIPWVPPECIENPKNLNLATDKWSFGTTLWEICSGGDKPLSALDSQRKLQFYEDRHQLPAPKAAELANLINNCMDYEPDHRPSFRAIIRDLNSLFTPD

| Structure (SMILES) | Kd [1] [nM] | IC50 [2, 4] [nM] | IC50 [3, 4] [nM] | Kd ([1]; SPR, JAK2 JH2 domain) [nM] | IC50 ([2]; TF1 JAK2 V617F) [nM] | IC50 ([3]; TF1 JAK2 V617F) [nM] |
| --- | --- | --- | --- | --- | --- | --- |
| CNC(=O)c1nnc(NC(=O)C2CC2)cc1Nc1cccc(-c2cnn([C@H]3C[C@H]([C@@H](OC)c4ccccn4)C3)c2)c1OC (single isomer, unassigned) [Compound 346] | 0.01 to 10 | 500 to 5000 | 500 to 5000 | – | – | – |
| CNC(=O)c1nnc(NC(=O)C2CC2)cc1Nc1cccc(-c2cnn([C@H]3C[C@@H]([C@H](OC)c4ccccn4)C3)c2)c1OC (single isomer, unassigned) [Compound 350] | 10 to 50 | 500 to 5000 | 500 to 5000 | – | – | – |
| CNC(=O)c1nnc(NC(=O)C2CC2)cc1Nc1cccc(-c2cnn([C@H]3C[C@H]([C@@H](O)c4ccccn4)C3)c2)c1OC (single isomer, unassigned) [Compound 396] | – | 500 to 5000 | 500 to 5000 | 0.01 to 10 | – | – |
| CNC(=O)c1nnc(NC(=O)C2CC2)cc1Nc1cccc(-c2cnn([C@H]3C[C@H]([C@H](O)c4ccccn4)C3)c2)c1OC (single isomer, unassigned) [Compound 397] | – | 5000 to 100000 | 500 to 5000 | 0.01 to 10 | – | – |
| CNC(=O)c1nnc(NC(=O)C2CC2)cc1Nc1cccc(-c2cnn([C@H]3C[C@@H]([C@@H](O)c4ccccn4)C3)c2)c1OC (single isomer, unassigned) [Compound 398] | – | 500 to 5000 | 500 to 5000 | 0.01 to 10 | – | – |
| CNC(=O)c1nnc(NC(=O)C2CC2)cc1Nc1cccc(-c2cnn([C@H]3C[C@@H]([C@H](O)c4ccccn4)C3)c2)c1OC (single isomer, unassigned) [Compound 399] | – | 50 to 500 | 500 to 5000 | 0.01 to 10 | – | – |
| CNC(=O)c1nnc(NC(=O)C2CC2)cc1Nc1cccc(-c2cn([C@H]3CN(Cc4cccc(C#N)n4)[C@@H]3C)nn2)c1OC (stereo in doubt) [Compound 234] | 0.01 to 10 | 50 to 500 | 50 to 500 | – | – | – |
| CNC(=O)c1nnc(NC(=O)C2CC2)cc1Nc1cccc(-c2cn([C@H]3CN(Cc4cccc(C)n4)[C@@H]3C)nn2)c1OC (stereo in doubt) [Compound 235] | 0.01 to 10 | 50 to 500 | 50 to 500 | – | – | – |
| CNC(=O)c1nnc(NC(=O)C2CC2)cc1Nc1cccc(-c2cn([C@H]3CN(Cc4cccc(Cl)n4)[C@@H]3C)nn2)c1OC (stereo in doubt) [Compound 236] | 0.01 to 10 | 50 to 500 | 50 to 500 | – | – | – |
| CNC(=O)c1nnc(NC(=O)C2CC2)cc1Nc1cccc(-c2cn(C3CN(Cc4cccc(C#N)n4)[C@@H]3C)nn2)c1OC (stereo in doubt) [Compound 237] | 0.01 to 10 | 500 to 5000 | 500 to 5000 | – | – | – |
| CNC(=O)c1nnc(NC(=O)C2CC2)cc1Nc1cccc(-c2cn([C@@H]3CN(Cc4cccc(C)n4)[C@H]3C)nn2)c1OC (stereo in doubt) [Compound 238] | 0.01 to 10 | 500 to 5000 | 500 to 5000 | – | – | – |
| CNC(=O)c1nnc(NC(=O)C2CC2)cc1Nc1cccc(-c2cn(C3CN(Cc4cccc(Cl)n4)[C@@H]3C)nn2)c1OC (stereo in doubt) [Compound 239] | 0.01 to 10 | 500 to 5000 | 500 to 5000 | – | – | – |
| CNC(=O)c1nnc(NC(=O)C2CC2)cc1Nc1cccc(-c2cnn([C@@H]3CN(Cc4cccnn4)[C@H]3C)c2)c1OC (stereo in doubt) [Compound 323] | 0.01 to 10 | 500 to 5000 | 500 to 5000 | – | – | – |
| CNC(=O)c1nnc(NC(=O)C2CC2)cc1Nc1cccc(-c2ccc(NC(=O)Cc3cccn(C)c3=O)cc2)c1OC [Compound 2] | – | – | – | 0.01 to 10 | 5000 to 100000 | 5000 to 100000 |
| CNC(=O)c1nnc(NC(=O)C2CC2)cc1Nc1cccc(-c2cnc(C(=O)NCc3cccn(C)c3=O)cn2)c1OC [Compound 7] | – | – | – | 0.01 to 10 | 5000 to 100000 | 500 to 5000 |
| CNC(=O)c1nnc(NC(=O)C2CC2)cc1Nc1cccc(-c2cnc(C(=O)N(C)Cc3ccccn3)nc2)c1OC [Compound 13] | – | – | – | 0.01 to 10 | 500 to 5000 | 500 to 5000 |
| CNC(=O)c1nnc(NC(=O)C2CC2)cc1Nc1cccc(-c2ccc(C(=O)N(CCOC)Cc3cccn(C)c3=O)nc2)c1OC [Compound 15] | – | – | – | 0.01 to 10 | 5000 to 100000 | 5000 to 100000 |
| CNC(=O)c1nnc(NC(=O)C2CC2)cc1Nc1cccc(-c2ccc(C(=O)N(Cc3cccn(C)c3=O)CC(F)F)nc2)c1OC [Compound 16] | – | – | – | 0.01 to 10 | 5000 to 100000 | 500 to 5000 |
| CNC(=O)c1nnc(NC(=O)C2CC2)cc1Nc1cccc(-c2ccc(C(=O)N(C)Cc3ccccn3)nc2)c1OC [Compound 19] | – | – | – | 0.01 to 10 | 500 to 5000 | 500 to 5000 |
| CNC(=O)c1nnc(NC(=O)C2CC2)cc1Nc1cccc(-c2ccc(C(=O)N(C)Cc3cc(C#N)ccn3)nc2OC)c1OC [Compound 20] | – | – | – | 0.01 to 10 | 500 to 5000 | 500 to 5000 |
| CNC(=O)c1nnc(NC(=O)C2CC2)cc1Nc1cccc(-c2cnc(C(=O)N(CCOC)Cc3cccn(C)c3=O)c(F)c2)c1OC [Compound 21] | – | – | – | 0.01 to 10 | 500 to 5000 | 500 to 5000 |
| CNC(=O)c1nnc(NC(=O)C2CC2)cc1Nc1cccc(-c2cnc(C(=O)N(CCF)Cc3cccn(C)c3=O)c(F)c2)c1OC [Compound 22] | – | – | – | 0.01 to 10 | 500 to 5000 | 500 to 5000 |
| CNC(=O)c1nnc(NC(=O)C2CC2)cc1Nc1cccc(-c2ccc(C(=O)N(C)Cc3cccn(C)c3=O)nc2)c1OC [Compound 23] | – | – | – | 0.01 to 10 | 50 to 500 | 500 to 5000 |
| CNC(=O)c1nnc(NC(=O)C2CC2)cc1Nc1cccc(-c2cnc(C(=O)N(C)Cc3cccn(C)c3=O)cc2C)c1OC [Compound 24] | – | – | – | 0.01 to 10 | 500 to 5000 | 500 to 5000 |
| CNC(=O)c1nnc(NC(=O)C2CC2)cc1Nc1cccc(-c2ccc(C(=O)N(C)Cc3cccn(C)c3=O)nc2OC)c1OC [Compound 25] | – | – | – | 0.01 to 10 | 500 to 5000 | 500 to 5000 |
| CNC(=O)c1nnc(NC(=O)C2CC2)cc1Nc1cccc(-c2cnc(C(=O)N(C)Cc3ccccn3)c(F)c2)c1OC [Compound 27] | – | – | – | 0.01 to 10 | 50 to 500 | 50 to 500 |
